Reference: ChEMBL document CHEMBL5260810, “Inhibition of bromodomain-containing protein 9 for the prevention of epigenetically-defined drug resistance” (Bioorg Med Chem Lett, 2017)
pIC50, pKd: −log10 of the molar value.

Key:
[1] = Cytotoxicity against human NCI-H2023 cells measured after 8 days; format: functional, cell-based; settings: NCI-H2023, 192 h
RERF-LC-MS = test: Cytotoxicity against human RERF-LC-MS cells measured after 8 days; format: functional, cell-based; settings: 192 h
[2] = biological target: Tyrosine-protein kinase ABL1 (Homo sapiens) (UniProt P00519); test: Inhibition of Abl (unknown origin) at 1 uM relative to control
[3] = Cytotoxicity against human OVCA429 cells measured after 8 days; format: functional, cell-based; settings: OVCA429, 192 h
[4] = biological target: T1, Bromodomain-containing protein 4 (Homo sapiens, UniProt O60885); test: Binding affinity to human partial length BRD4 bromodomain 1 long isoform (N44 to E168 residues) expressed in bacterial expression system by BROMOscan assay
DU-145 = test: Cytotoxicity against human DU-145 cells measured after 8 days; format: functional, cell-based; settings: DU-145, 192 h
COLO 205 = test: Cytotoxicity against human COLO 205 cells measured after 8 days; format: functional, cell-based; settings: COLO 205, 192 h
[5] = biological target: T1, Bromodomain-containing protein 4; test: Displacement of biotinylated small-molecule ligand from recombinant His-tagged BRD4 bromodomain 2 (unknown origin) measured after 10 mins by TR-FRET assay
[6] = biological target: Ribosomal protein S6 kinase alpha-2 (Homo sapiens) (UniProt Q15349); test: Inhibition of RSK3 (unknown origin) at 1 uM relative to control
CW-2 = test: Cytotoxicity against human CW-2 cells measured after 8 days; format: functional, cell-based; settings: CW-2, 192 h
[7] = biological target: Muscarinic acetylcholine receptor M3 (Homo sapiens) (UniProt P20309); test: Displacement of [3H]4-DAMP from human recombinant M3 receptor at 10 uM after 60 mins by scintillation counting analysis relative to control
HCC1419 = test: Cytotoxicity against human HCC1419 cells measured after 8 days; format: functional, cell-based; settings: HCC1419, 192 h
Homo sapiens = organism: Homo sapiens; test: Inhibition of JAK1alpha1 (unknown origin) at 1 uM relative to control
[8] = Cytotoxicity against human NCI-H1869 cells measured after 8 days; format: functional, cell-based; settings: NCI-H1869, 192 h
[9] = biological target: RAC-alpha serine/threonine-protein kinase (Homo sapiens) (UniProt P31749); test: Inhibition of AKT1 (unknown origin) at 1 uM relative to control
[10] = Cytotoxicity against human OVCAR433 cells measured after 8 days; format: functional, cell-based; settings: OVCAR433, 192 h
[11] = biological target: Receptor-type tyrosine-protein kinase FLT3 (Homo sapiens) (UniProt P36888); test: Inhibition of Flt3 (unknown origin) at 1 uM relative to control
HCC44 = test: Cytotoxicity against human HCC44 cells measured after 8 days; format: functional, cell-based; settings: HCC44, 192 h
[12] = biological target: T2, Bromodomain-containing protein 7 (Homo sapiens, UniProt Q9NPI1); test: Binding affinity to human partial length BRD7 (L125 to R254 residues) expressed in mammalian expression system by BROMOscan assay
T2 sequence (Q9NPI1 whole entry): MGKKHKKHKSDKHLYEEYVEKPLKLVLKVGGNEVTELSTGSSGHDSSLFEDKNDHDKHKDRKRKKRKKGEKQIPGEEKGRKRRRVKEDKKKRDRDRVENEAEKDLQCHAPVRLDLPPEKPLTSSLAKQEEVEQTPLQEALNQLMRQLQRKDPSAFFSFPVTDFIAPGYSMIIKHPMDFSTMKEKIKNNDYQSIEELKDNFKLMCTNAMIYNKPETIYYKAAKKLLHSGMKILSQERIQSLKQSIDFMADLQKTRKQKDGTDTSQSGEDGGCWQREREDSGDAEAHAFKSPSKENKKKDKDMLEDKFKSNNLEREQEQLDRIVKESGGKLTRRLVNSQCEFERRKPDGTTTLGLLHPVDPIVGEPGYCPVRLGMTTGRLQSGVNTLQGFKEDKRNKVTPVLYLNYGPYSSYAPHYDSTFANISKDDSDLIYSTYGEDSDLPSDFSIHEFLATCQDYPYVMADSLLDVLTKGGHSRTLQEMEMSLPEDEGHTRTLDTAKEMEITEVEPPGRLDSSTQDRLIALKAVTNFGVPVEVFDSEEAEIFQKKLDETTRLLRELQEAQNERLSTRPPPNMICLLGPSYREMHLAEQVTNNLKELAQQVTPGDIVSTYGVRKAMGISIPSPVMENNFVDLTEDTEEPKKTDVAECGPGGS

Peregrin = biological target: T3, Peregrin (Homo sapiens, UniProt P55201); test: Binding affinity to human partial length BRPF1 (E627 to G740 residues) expressed in bacterial expression system by BROMOscan assay
T3 sequence (P55201 whole entry): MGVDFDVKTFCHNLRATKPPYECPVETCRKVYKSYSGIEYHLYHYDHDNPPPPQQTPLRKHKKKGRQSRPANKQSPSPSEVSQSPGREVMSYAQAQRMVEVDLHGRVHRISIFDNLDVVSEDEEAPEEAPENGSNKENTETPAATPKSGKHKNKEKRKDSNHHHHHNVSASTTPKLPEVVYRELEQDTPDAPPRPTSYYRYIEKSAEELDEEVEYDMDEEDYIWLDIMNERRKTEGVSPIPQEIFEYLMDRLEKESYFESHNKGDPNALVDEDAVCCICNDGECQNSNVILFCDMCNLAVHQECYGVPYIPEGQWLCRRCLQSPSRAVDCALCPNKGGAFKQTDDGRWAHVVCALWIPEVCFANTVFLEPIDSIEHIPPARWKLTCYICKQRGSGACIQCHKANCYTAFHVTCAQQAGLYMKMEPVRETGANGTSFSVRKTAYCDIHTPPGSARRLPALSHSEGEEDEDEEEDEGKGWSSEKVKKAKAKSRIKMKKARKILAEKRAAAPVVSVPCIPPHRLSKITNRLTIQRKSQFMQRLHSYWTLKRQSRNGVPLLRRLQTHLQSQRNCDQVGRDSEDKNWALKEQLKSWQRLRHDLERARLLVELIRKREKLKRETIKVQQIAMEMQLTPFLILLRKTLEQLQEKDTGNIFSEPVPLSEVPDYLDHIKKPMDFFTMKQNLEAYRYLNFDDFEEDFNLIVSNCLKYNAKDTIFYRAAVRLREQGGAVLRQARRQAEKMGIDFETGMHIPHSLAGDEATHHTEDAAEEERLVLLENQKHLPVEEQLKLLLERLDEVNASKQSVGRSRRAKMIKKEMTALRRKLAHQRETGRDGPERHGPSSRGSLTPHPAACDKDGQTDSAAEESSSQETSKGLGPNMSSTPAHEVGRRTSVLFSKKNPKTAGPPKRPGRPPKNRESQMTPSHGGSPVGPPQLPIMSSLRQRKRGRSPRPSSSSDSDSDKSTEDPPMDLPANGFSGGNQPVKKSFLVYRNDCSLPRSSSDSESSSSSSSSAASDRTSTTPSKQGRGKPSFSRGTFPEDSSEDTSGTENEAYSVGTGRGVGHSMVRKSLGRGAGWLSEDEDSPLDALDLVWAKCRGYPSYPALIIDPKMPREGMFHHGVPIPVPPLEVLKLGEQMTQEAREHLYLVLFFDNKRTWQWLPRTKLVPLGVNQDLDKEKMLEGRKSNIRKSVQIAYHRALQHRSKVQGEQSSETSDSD

Sequence of RAC-alpha serine/threonine-protein kinase (Homo sapiens) (P31749 whole entry): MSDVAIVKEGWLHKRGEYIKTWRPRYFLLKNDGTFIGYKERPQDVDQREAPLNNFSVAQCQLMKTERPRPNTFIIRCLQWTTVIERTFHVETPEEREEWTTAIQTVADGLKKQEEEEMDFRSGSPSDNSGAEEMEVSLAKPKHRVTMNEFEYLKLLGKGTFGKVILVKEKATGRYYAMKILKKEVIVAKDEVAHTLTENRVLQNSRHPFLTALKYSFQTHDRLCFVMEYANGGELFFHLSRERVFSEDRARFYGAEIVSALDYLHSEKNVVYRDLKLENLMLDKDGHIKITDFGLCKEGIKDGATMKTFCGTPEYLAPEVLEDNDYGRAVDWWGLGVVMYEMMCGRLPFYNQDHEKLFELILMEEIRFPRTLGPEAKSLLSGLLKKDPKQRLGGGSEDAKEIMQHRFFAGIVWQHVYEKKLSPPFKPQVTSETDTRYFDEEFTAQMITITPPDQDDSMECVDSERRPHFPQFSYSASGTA
Sequence of Ribosomal protein S6 kinase alpha-2 (Homo sapiens) (Q15349 whole entry): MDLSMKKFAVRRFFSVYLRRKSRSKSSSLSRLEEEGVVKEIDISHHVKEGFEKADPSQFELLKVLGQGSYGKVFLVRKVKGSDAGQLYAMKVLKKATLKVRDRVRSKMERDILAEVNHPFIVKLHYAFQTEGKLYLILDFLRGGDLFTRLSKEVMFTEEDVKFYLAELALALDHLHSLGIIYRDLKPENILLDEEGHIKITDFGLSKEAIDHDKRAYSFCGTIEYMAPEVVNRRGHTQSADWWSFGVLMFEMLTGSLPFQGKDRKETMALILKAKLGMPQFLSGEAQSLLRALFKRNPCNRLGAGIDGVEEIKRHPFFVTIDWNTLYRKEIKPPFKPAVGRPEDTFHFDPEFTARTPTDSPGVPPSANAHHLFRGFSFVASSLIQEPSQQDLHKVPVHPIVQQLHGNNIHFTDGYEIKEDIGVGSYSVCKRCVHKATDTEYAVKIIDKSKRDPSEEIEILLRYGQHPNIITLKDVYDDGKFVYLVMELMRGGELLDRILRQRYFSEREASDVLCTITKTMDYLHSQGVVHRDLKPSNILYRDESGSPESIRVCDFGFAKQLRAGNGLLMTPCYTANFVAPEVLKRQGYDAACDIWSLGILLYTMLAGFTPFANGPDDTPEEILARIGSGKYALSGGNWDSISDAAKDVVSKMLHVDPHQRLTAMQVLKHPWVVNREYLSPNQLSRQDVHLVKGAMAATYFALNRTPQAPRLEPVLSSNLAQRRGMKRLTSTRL
Sequence of Muscarinic acetylcholine receptor M3 (Homo sapiens) (P20309 whole entry, looked up): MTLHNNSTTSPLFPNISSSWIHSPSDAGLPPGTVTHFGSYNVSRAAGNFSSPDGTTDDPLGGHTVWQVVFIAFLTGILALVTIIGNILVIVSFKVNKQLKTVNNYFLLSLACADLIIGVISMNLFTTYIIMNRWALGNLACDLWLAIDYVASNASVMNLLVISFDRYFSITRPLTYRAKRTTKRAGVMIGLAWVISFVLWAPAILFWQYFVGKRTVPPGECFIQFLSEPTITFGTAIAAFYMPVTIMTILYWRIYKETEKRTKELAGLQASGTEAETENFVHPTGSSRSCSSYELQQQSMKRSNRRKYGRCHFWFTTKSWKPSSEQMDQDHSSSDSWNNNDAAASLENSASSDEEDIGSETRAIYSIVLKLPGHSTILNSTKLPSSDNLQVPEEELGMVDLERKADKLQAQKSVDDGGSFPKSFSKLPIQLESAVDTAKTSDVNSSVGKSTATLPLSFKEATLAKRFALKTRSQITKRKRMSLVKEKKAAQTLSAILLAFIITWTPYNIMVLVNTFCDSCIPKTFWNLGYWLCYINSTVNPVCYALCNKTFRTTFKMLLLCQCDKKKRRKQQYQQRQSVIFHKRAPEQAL
Sequence of Receptor-type tyrosine-protein kinase FLT3 (Homo sapiens) (P36888 whole entry): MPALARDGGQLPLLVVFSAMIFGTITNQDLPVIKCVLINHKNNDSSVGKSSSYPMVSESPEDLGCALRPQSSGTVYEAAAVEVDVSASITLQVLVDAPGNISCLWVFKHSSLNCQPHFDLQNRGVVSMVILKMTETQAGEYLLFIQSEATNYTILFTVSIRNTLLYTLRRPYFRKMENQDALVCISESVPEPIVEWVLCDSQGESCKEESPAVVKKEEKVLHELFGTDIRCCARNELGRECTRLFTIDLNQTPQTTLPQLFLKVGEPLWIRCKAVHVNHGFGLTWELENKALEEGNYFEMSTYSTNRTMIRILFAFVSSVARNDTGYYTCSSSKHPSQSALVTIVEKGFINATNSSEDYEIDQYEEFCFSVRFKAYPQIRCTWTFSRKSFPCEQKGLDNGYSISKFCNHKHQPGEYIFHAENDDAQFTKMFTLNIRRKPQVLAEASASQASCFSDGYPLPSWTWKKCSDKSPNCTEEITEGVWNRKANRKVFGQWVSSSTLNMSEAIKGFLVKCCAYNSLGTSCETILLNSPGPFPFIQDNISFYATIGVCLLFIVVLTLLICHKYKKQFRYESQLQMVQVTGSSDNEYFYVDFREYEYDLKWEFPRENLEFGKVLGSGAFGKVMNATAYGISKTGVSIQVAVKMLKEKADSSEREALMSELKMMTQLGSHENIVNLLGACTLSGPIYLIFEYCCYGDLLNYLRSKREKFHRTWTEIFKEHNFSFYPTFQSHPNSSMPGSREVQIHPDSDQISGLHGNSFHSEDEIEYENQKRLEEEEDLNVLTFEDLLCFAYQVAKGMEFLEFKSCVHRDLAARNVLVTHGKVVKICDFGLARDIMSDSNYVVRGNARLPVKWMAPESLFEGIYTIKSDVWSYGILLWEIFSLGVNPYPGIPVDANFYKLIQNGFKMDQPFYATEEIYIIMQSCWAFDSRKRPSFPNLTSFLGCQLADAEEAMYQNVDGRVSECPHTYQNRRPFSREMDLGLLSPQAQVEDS
Sequence of Tyrosine-protein kinase ABL1 (Homo sapiens) (P00519 whole entry): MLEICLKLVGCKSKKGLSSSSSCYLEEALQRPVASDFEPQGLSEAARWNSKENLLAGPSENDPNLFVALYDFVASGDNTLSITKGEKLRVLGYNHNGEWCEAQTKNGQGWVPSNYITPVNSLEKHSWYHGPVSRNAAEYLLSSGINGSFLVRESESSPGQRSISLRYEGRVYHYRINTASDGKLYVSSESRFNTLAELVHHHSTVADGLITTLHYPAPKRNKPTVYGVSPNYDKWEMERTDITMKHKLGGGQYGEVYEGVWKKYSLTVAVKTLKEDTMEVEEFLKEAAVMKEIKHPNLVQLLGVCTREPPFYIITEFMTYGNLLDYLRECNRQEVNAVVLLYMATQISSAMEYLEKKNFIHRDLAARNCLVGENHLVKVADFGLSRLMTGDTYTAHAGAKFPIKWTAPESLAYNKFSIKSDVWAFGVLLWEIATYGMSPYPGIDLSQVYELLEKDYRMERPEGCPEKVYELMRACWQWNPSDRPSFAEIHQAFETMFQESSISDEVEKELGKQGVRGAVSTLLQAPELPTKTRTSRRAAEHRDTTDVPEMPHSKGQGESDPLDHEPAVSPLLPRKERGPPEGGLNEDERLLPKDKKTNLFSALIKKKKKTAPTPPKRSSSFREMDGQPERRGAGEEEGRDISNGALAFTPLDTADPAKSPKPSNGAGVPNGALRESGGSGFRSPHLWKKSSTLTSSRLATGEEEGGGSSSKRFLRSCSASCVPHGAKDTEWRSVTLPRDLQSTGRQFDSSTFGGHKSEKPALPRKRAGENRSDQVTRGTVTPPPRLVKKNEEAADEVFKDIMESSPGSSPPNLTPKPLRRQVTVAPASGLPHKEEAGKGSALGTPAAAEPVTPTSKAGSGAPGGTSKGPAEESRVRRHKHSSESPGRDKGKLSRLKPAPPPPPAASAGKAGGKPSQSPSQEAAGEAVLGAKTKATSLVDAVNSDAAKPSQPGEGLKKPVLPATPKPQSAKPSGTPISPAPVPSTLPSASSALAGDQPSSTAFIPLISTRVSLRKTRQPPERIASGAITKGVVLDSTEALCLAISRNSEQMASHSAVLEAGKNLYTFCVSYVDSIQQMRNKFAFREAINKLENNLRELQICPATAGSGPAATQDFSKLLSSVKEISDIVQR

Compound | pIC50 [1] | pIC50 (RERF-LC-MS) | inhibition [2] [%] | pIC50 [3] | pKd [4] | pIC50 (DU-145) | pIC50 (COLO 205) | pIC50 [5] | inhibition [6] [%] | pIC50 (CW-2) | Activity [7] [%] | pIC50 (HCC1419) | inhibition (Homo sapiens) [%] | pIC50 [8] | inhibition [9] [%] | pIC50 [10] | inhibition [11] [%] | pIC50 (HCC44) | pKd [12] | pKd (Peregrin)
C/C=C/Cn1cc(-c2ccc(C(C)(C)O)cc2OC)c2cc[nH]c2c1=O | 4.70 | 4.70 | 10 | 4.70 | 5.80 | 4.70 | 4.70 | < 4.70 | 5.5 | 4.70 | 6 | 4.70 | -4 | 4.70 | 2.5 | 4.70 | 15 | 4.70 | 6.47 | < 5.00
C/C=C/Cn1cc(-c2cc(OC)c(C(C)(C)O)cc2OC)c2cc(C)[nH]c2c1=O | – | – | – | – | 5.03 | – | – | < 4.70 | – | – | – | – | – | – | – | – | – | – | 6.28 | < 5.00
C/C=C/Cn1cc(-c2ccc(C(=O)N3CCOCC3)cc2)c2cc[nH]c2c1=O | 4.70 | 4.70 | -4.2 | 4.70 | 5.77 | 4.70 | 4.70 | 5.08 | -4.3 | 4.70 | -13 | 4.70 | 25.3 | 4.70 | -2.1 | 4.70 | 4.4 | 4.70 | 6.70 | < 5.00
C/C=C/Cn1cc(-c2cc(OC)c(C(=O)N3CCOCC3)cc2OC)c2cc(C)[nH]c2c1=O | 5.70 | 5.70 | 11 | 5.75 | < 5.00 | 5.70 | 5.70 | < 4.70 | 3.5 | 5.70 | 3 | 5.70 | -9.5 | 5.70 | 1.5 | 5.70 | 6 | 5.70 | 6.96 | < 5.00
